Test results reported in PubChem BioAssay (NCI).
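Step 1: Grow cells in 96-well plates. Step 2: Expose to compound for 48 hours at 5 concentrations. Step 3: Interpolate endpoints linearly; if unreached, use highest concentration. GI50 = concentration required for 50% inhibition of growth. TGI marks complete inhibition of growth.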

Assays:
Test in all cases: NCI-60 cell line screen, 48 h
SNB-75 CNS = tested on: SNB-75 CNS
SF-295 CNS = tested on: SF-295 CNS
UO-31 renal = tested on: UO-31 renal
HOP-62 NSCLC = tested on: HOP-62 NSCLC
COLO 205 colon = tested on: COLO 205 colon
HL-60(TB) leukemia = tested on: HL-60(TB) leukemia
KM12 colon = tested on: KM12 colon
T-47D breast = tested on: T-47D breast
SNB-19 CNS = tested on: SNB-19 CNS
TK-10 renal = tested on: TK-10 renal
NCI/ADR-RES ovarian = tested on: NCI/ADR-RES ovarian
MALME-3M melanoma = tested on: MALME-3M melanoma
SK-MEL-5 melanoma = tested on: SK-MEL-5 melanoma
HOP-92 NSCLC = tested on: HOP-92 NSCLC
CCRF-CEM leukemia = tested on: CCRF-CEM leukemia
RXF 393 renal = tested on: RXF 393 renal
SK-MEL-2 melanoma = tested on: SK-MEL-2 melanoma
BT-549 breast = tested on: BT-549 breast
OVCAR-3 ovarian = tested on: OVCAR-3 ovarian
A549 NSCLC = tested on: A549 NSCLC
HT29 colon = tested on: HT29 colon
MDA-MB-231 breast = tested on: MDA-MB-231 breast
NCI-H522 lung = tested on: NCI-H522 lung
UACC-62 melanoma = tested on: UACC-62 melanoma
CAKI-1 renal = tested on: CAKI-1 renal
OVCAR-5 ovarian = tested on: OVCAR-5 ovarian
HS 578T breast = tested on: HS 578T breast
HCT-116 colon = tested on: HCT-116 colon
NCI-H460 lung = tested on: NCI-H460 lung
EKVX NSCLC = tested on: EKVX NSCLC
SN12C renal = tested on: SN12C renal
SF-539 CNS = tested on: SF-539 CNS
U251 CNS = tested on: U251 CNS
OVCAR-8 ovarian = tested on: OVCAR-8 ovarian
HCT-15 colon = tested on: HCT-15 colon
RPMI-8226 leukemia = tested on: RPMI-8226 leukemia
UACC-257 melanoma = tested on: UACC-257 melanoma
SW-620 colon = tested on: SW-620 colon
NCI-H226 lung = tested on: NCI-H226 lung
PC-3 prostate = tested on: PC-3 prostate
MDA-MB-435 = tested on: MDA-MB-435
SK-MEL-28 melanoma = tested on: SK-MEL-28 melanoma
IGROV1 ovarian = tested on: IGROV1 ovarian
HCC-2998 colon = tested on: HCC-2998 colon
M14 melanoma = tested on: M14 melanoma
SF-268 CNS = tested on: SF-268 CNS
K-562 leukemia = tested on: K-562 leukemia
786-0 renal = tested on: 786-0 renal
NCI-H23 lung = tested on: NCI-H23 lung
A498 renal = tested on: A498 renal
OVCAR-4 ovarian = tested on: OVCAR-4 ovarian
SR leukemia = tested on: SR leukemia
DU-145 prostate = tested on: DU-145 prostate
SK-OV-3 ovarian = tested on: SK-OV-3 ovarian
LOX IMVI melanoma = tested on: LOX IMVI melanoma
MOLT-4 leukemia = tested on: MOLT-4 leukemia
ACHN renal = tested on: ACHN renal

O=C1/C(=C/c2cccc(Br)c2)COc2ccc(O)cc21
GI50 (SNB-75 CNS): 1.79 µM | TGI (SNB-75 CNS): 14.6 µM | GI50 (SF-295 CNS): 10.4 µM | TGI (SF-295 CNS): 23.6 µM | GI50 (UO-31 renal): 1.51 µM | TGI (UO-31 renal): 3.46 µM | GI50 (HOP-62 NSCLC): 11.7 µM | TGI (HOP-62 NSCLC): 24.3 µM | GI50 (COLO 205 colon): 3.33 µM | TGI (COLO 205 colon): 11.1 µM | GI50 (HL-60(TB) leukemia): 1.88 µM | TGI (HL-60(TB) leukemia): 5.75 µM | GI50 (KM12 colon): 1.75 µM | TGI (KM12 colon): 3.74 µM | GI50 (T-47D breast): 2.18 µM | TGI (T-47D breast): 6.28 µM | GI50 (SNB-19 CNS): 2.43 µM | TGI (SNB-19 CNS): 7.47 µM | GI50 (TK-10 renal): 3.94 µM | TGI (TK-10 renal): 15.6 µM | GI50 (NCI/ADR-RES ovarian): 3.24 µM | TGI (NCI/ADR-RES ovarian): 13.5 µM | GI50 (MALME-3M melanoma): 2.36 µM | TGI (MALME-3M melanoma): 6.65 µM | GI50 (SK-MEL-5 melanoma): 1.91 µM | TGI (SK-MEL-5 melanoma): 4.35 µM | GI50 (HOP-92 NSCLC): 2.65 µM | TGI (HOP-92 NSCLC): 13.6 µM | GI50 (CCRF-CEM leukemia): 0.285 µM | TGI (CCRF-CEM leukemia): 1.88 µM | GI50 (RXF 393 renal): 2.12 µM | TGI (RXF 393 renal): 5.99 µM | GI50 (SK-MEL-2 melanoma): 3.79 µM | TGI (SK-MEL-2 melanoma): 14.2 µM | GI50 (BT-549 breast): 3.01 µM | TGI (BT-549 breast): 12.7 µM | GI50 (OVCAR-3 ovarian): 1.82 µM | TGI (OVCAR-3 ovarian): 3.89 µM | GI50 (A549 NSCLC): 4.12 µM | TGI (A549 NSCLC): 16.5 µM | GI50 (HT29 colon): 2.43 µM | TGI (HT29 colon): 10.2 µM | GI50 (MDA-MB-231 breast): 2.88 µM | TGI (MDA-MB-231 breast): 9.38 µM | GI50 (NCI-H522 lung): 1.46 µM | TGI (NCI-H522 lung): 3.11 µM | GI50 (UACC-62 melanoma): 2.37 µM | TGI (UACC-62 melanoma): 6.35 µM | GI50 (CAKI-1 renal): 1.83 µM | TGI (CAKI-1 renal): 5.12 µM | GI50 (OVCAR-5 ovarian): 3.72 µM | TGI (OVCAR-5 ovarian): 14.5 µM | GI50 (HS 578T breast): 3.47 µM | TGI (HS 578T breast): 26.2 µM | GI50 (HCT-116 colon): 1.45 µM | TGI (HCT-116 colon): 2.99 µM | GI50 (NCI-H460 lung): 3.69 µM | TGI (NCI-H460 lung): 13.2 µM | GI50 (EKVX NSCLC): 4.78 µM | TGI (EKVX NSCLC): 17.4 µM | GI50 (SN12C renal): 1.85 µM | TGI (SN12C renal): 4.28 µM | GI50 (SF-539 CNS): 1.89 µM | TGI (SF-539 CNS): 4.58 µM | GI50 (U251 CNS): 1.49 µM | TGI (U251 CNS): 3 µM | GI50 (OVCAR-8 ovarian): 3.4 µM | TGI (OVCAR-8 ovarian): 12.9 µM | GI50 (HCT-15 colon): 1.95 µM | TGI (HCT-15 colon): 7.88 µM | GI50 (RPMI-8226 leukemia): 0.26 µM | TGI (RPMI-8226 leukemia): 0.761 µM | GI50 (UACC-257 melanoma): 3.93 µM | TGI (UACC-257 melanoma): 15.9 µM | GI50 (SW-620 colon): 0.683 µM | TGI (SW-620 colon): 2.49 µM | GI50 (NCI-H226 lung): 4.92 µM | TGI (NCI-H226 lung): 26 µM | GI50 (PC-3 prostate): 2.04 µM | TGI (PC-3 prostate): 5.57 µM | GI50 (MDA-MB-435): 2.13 µM | TGI (MDA-MB-435): 5.35 µM | GI50 (SK-MEL-28 melanoma): 2.14 µM | TGI (SK-MEL-28 melanoma): 5.21 µM | GI50 (IGROV1 ovarian): 1.92 µM | TGI (IGROV1 ovarian): 4.75 µM | GI50 (HCC-2998 colon): 1.8 µM | TGI (HCC-2998 colon): 3.46 µM | GI50 (M14 melanoma): 3.42 µM | TGI (M14 melanoma): 12.3 µM | GI50 (SF-268 CNS): 3.33 µM | TGI (SF-268 CNS): 18.2 µM | GI50 (K-562 leukemia): 1.24 µM | TGI (K-562 leukemia): 11 µM | GI50 (786-0 renal): 2.08 µM | TGI (786-0 renal): 5.43 µM | GI50 (NCI-H23 lung): 3.79 µM | TGI (NCI-H23 lung): 15.6 µM | GI50 (A498 renal): 11.6 µM | TGI (A498 renal): 23.9 µM | GI50 (OVCAR-4 ovarian): 3.55 µM | TGI (OVCAR-4 ovarian): 14.1 µM | GI50 (SR leukemia): 0.47 µM | TGI (SR leukemia): 5.2 µM | GI50 (DU-145 prostate): 4.48 µM | TGI (DU-145 prostate): 16.5 µM | GI50 (SK-OV-3 ovarian): 7.33 µM | TGI (SK-OV-3 ovarian): 19.8 µM | GI50 (LOX IMVI melanoma): 1.7 µM | TGI (LOX IMVI melanoma): 3.41 µM | GI50 (MOLT-4 leukemia): 2.46 µM | TGI (MOLT-4 leukemia): 10.9 µM | GI50 (ACHN renal): 1.89 µM | TGI (ACHN renal): 4.16 µM
